Here are results for 4 compounds from BindingDB's records for doi:10.1016/j.ejmech.2019.01.044 (Institute of Agricultural and Food Biotechnology, 2019).

One may read the IC50 as the concentration needed to halve the response being measured.

For the assay, the target named is T1, Proteasome subunit beta type-5 (Rattus norvegicus, UniProt P28075).
T1 sequence (P28075 whole entry): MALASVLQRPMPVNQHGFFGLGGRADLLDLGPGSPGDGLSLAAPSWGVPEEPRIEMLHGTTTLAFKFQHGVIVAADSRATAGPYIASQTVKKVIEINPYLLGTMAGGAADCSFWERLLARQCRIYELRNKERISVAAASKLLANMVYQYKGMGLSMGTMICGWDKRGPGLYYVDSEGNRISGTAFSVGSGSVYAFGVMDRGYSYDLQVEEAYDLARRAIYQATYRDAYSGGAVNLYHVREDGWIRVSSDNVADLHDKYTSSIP
As to the kind of experiment: Inhibition of chymotrypsin-like activity of rat liver 26 proteasome assessed as decrease in fluorescence using succinyl-Leu-Leu-Val-Tyr-4-methylcoumaryl-7-amide as substrate preincubated for 30 mins followed by addition of substrate and measured after 1 hr by fluorescence based method.

For `C=CC(/C=C\c1ccc(O)cc1)c1ccc(O)cc1` (centres undefined), the IC50 is 71.3 nM.
For `COc1cc(O)c(C(=O)c2ccc(O)cc2)c(O)c1`, the IC50 is over 960 nM.
The figure for `Oc1ccc(CC2COc3cc(O)ccc3C2)cc1` (centres undefined) is 234 nM.
Consider `COc1cc(O)ccc1CCCc1ccc(O)cc1` [BROUSSONIN B], for which the IC50 amounted to 178 nM.
